Test results taken from EP4635500A1, “THERAPEUTIC AGENT FOR BACTERIAL INFECTION” (Sumitomo Pharma Co., Ltd., priority 2022, dated 2024).
Converted amounts (≈) assume the structure as drawn. Read-outs that look alike come from different tables or passages of the source.

How the values were obtained:
Assay type in all cases: cell-based
[1] = tested on: Serine-carbapenemase producing strains (N = 19); experiment: MIC50/MIC90 for carbapenemase-producing isolates (Example 5, Table 6); set-up: unit not given here; conditions: Serine-carbapenemase (N = 19): KPC-2 (7), KPC-3 (8), KPC-38 (1), OXA-48 (2), OXA-181 (1)
Escherichia coli = experiment: MIC and MBC, broth microdilution (Example 4, Table 3)
Morganella morganii = experiment: as above; conditions: Morganella morganii CDC-57 (NDM-1)
Acinetobacter baumannii = experiment: as above
Bacteroides spp. = experiment: MIC, agar dilution, anaerobic bacteria (Example 9, Tables 17, 22); conditions: for MIC: (n)=Compound A µg/mL, 0=Compound A alone antibacterial
Fusobacterium spp. = experiment: MIC, agar dilution, anaerobic bacteria (Example 9, Tables 20, 25)
[2] = Escherichia coli CDC-150 (NDM-5)
[3] = Acinetobacter baumannii CDC-303 (OXA-23, OXA-66)

Molecule: colistin
- MIC50 [1]: 0.25
- MIC90 [1]: 2

Molecule: CC(C)(O/N=C(\C(=O)N[C@@H]1C(=O)N2C(C(=O)[O-])=C(C[n+]3ccccc3)CS[C@H]12)c1csc(N)n1)C(=O)O [CAZ, ceftazidime]
- MBC/MIC ratio (Escherichia coli): 1
- MBC (Escherichia coli; ATCCBAA2340, Escherichia coli ATCC BAA-2340 (KPC-3), read-out: MBC): 128 µg/mL (≈ 234 µM)
- MBC (Escherichia coli; ATCCBAA2469, Escherichia coli ATCC BAA-2469 (NDM-1), read-out: MBC): > 128 µg/mL
- MIC (Escherichia coli; ATCCBAA2469, Escherichia coli ATCC BAA-2469 (NDM-1), read-out: MIC): > 128 µg/mL
- MBC (Escherichia coli; [2]): >128 µg/mL
- MIC (Escherichia coli; [2]): >128 µg/mL
- MBC (Escherichia coli; Escherichia coli CDC-162 (NDM-7), read-out: MBC): > 128 µg/mL
- MIC (Escherichia coli; Escherichia coli CDC-162 (NDM-7), read-out: MIC): > 128 µg/mL
- MBC (Escherichia coli; Escherichia coli NCTC13476 (IMP-1), read-out: MBC): > 128 µg/mL
- MIC (Escherichia coli; Escherichia coli NCTC13476 (IMP-1), read-out: MIC): > 128 µg/mL
- MIC (Escherichia coli; Escherichia coli, ATCCBAA2340): 128 µg/mL (≈ 234 µM)
- MBC (Morganella morganii): > 128 µg/mL
- MIC (Morganella morganii): > 128 µg/mL
- MBC/MIC ratio (Acinetobacter baumannii; [3]): 2
- MIC (Acinetobacter baumannii; [3]): 64 µg/mL (≈ 117 µM)
- MBC/MIC ratio (Acinetobacter baumannii; Acinetobacter baumannii CDC-304 (OXA-66, OXA-72)): 1
- MIC (Acinetobacter baumannii; Acinetobacter baumannii CDC-304 (OXA-66, OXA-72), read-out: MIC): 64 µg/mL (≈ 117 µM)
- MBC (Acinetobacter baumannii; Acinetobacter baumannii, Acinetobacter baumannii CDC-33 (NDM-1, OXA-94)): > 128 µg/mL
- MIC (Acinetobacter baumannii; Acinetobacter baumannii, Acinetobacter baumannii CDC-33 (NDM-1, OXA-94), read-out: MIC): > 128 µg/mL
- MBC (Acinetobacter baumannii; Acinetobacter baumannii, Acinetobacter baumannii CDC-101 (OXA-24, OXA-65)): > 128 µg/mL
- MIC (Acinetobacter baumannii; Acinetobacter baumannii, Acinetobacter baumannii CDC-101 (OXA-24, OXA-65), read-out: MIC): > 128 µg/mL
- MBC (Acinetobacter baumannii; Acinetobacter baumannii, Acinetobacter baumannii CDC-303 (OXA-23, OXA-66)): 128 µg/mL (≈ 234 µM)
- MBC (Acinetobacter baumannii; Acinetobacter baumannii, Acinetobacter baumannii CDC-304 (OXA-66, OXA-72)): 64 µg/mL (≈ 117 µM)

Molecule: Cc1ncc([N+](=O)[O-])n1CCO [Metronidazole]
- MICrange (Bacteroides spp.; Bacteroides spp.): ≤0.12 to 2 µg/mL
- MIC50 (Bacteroides spp.; Bacteroides spp., read-out: MIC50): 1 µg/mL (≈ 5.84 µM)
- MIC90 (Bacteroides spp.; Bacteroides spp., read-out: MIC90): 1 µg/mL (≈ 5.84 µM)
- MIC (Bacteroides spp.; Bacteroides, KUB No. 2982 Bacteroidesfragilis): 1 µg/mL (≈ 5.84 µM)
- MIC (Bacteroides spp.; Bacteroides, KUB No. 6464 Bacteroides vulgarus): 0.5 µg/mL (≈ 2.92 µM)
- MIC (Bacteroides spp.; Bacteroides, KUB No. 6480 Bacteroides thetaioraomicron): 1 µg/mL (≈ 5.84 µM)
- MIC (Bacteroides spp.; Bacteroides, KUB No. 6487 Bacteroides thetaiotamicron): 0.25 µg/mL (≈ 1.46 µM)
- MIC (Bacteroides spp.; KUB No. 2977 Bacteroides thetaiotaomicron ATCC 29741): 2 µg/mL (≈ 11.7 µM)
- MIC (Bacteroides spp.; KUB No. 2983 Bacteroides fragilis): 0.25 µg/mL (≈ 1.46 µM)
- MIC (Bacteroides spp.; KUB No. 2984 Bacteroides thetaiotaomicron): 1 µg/mL (≈ 5.84 µM)
- MIC (Bacteroides spp.; KUB No. 3003 Bacteroides fragilis ATCC 25285): 0.5 µg/mL (≈ 2.92 µM)
- MIC (Bacteroides spp.; KUB No. 3009 Bacteroides ovatus): 1 µg/mL (≈ 5.84 µM)
- MIC (Bacteroides spp.; KUB No. 6458 Bacteroides fragilis): 0.5 µg/mL (≈ 2.92 µM)
- MIC (Bacteroides spp.; KUB No. 6459 Bacteroides stercoris): 1 µg/mL (≈ 5.84 µM)
- MIC (Bacteroides spp.; KUB No. 6460 Bacteroides thetaiotaomicron): 2 µg/mL (≈ 11.7 µM)
- MIC (Bacteroides spp.; KUB No. 6461 Bacteroides fragilis): 0.5 µg/mL (≈ 2.92 µM)
- MIC (Bacteroides spp.; KUB No. 6463 Bacteroides fragilis): 0.5 µg/mL (≈ 2.92 µM)
- MIC (Bacteroides spp.; KUB No. 6465 Bacteroides thetaiotaomicron): 2 µg/mL (≈ 11.7 µM)
- MIC (Bacteroides spp.; KUB No. 6466 Bacteroides fragilis): 1 µg/mL (≈ 5.84 µM)
- MIC (Bacteroides spp.; KUB No. 6467 Bacteroides fragilis): 0.5 µg/mL (≈ 2.92 µM)
- MIC (Bacteroides spp.; KUB No. 6468 Bacteroides fragilis): 1 µg/mL (≈ 5.84 µM)
- MIC (Bacteroides spp.; KUB No. 6469 Bacteroides fragilis): 1 µg/mL (≈ 5.84 µM)
- MIC (Bacteroides spp.; KUB No. 6470 Bacteroides fragilis): 2 µg/mL (≈ 11.7 µM)
- MIC (Bacteroides spp.; KUB No. 6471 Bacteroides fragilis): 1 µg/mL (≈ 5.84 µM)
- MIC (Bacteroides spp.; KUB No. 6472 Bacteroides stercoris): 0.5 µg/mL (≈ 2.92 µM)
- MIC (Bacteroides spp.; KUB No. 6473 Bacteroides fragilis): 1 µg/mL (≈ 5.84 µM)
- MIC (Bacteroides spp.; KUB No. 6474 Bacteroides fragilis): 0.5 µg/mL (≈ 2.92 µM)
- MIC (Bacteroides spp.; KUB No. 6475 Bacteroides thetaiotaomicron): 1 µg/mL (≈ 5.84 µM)
- MIC (Bacteroides spp.; KUB No. 6476 Bacteroides vulgatus): 1 µg/mL (≈ 5.84 µM)
- MIC (Bacteroides spp.; KUB No. 6477 Bacteroides fragilis): ≤ 0.12 µg/mL
- MIC (Bacteroides spp.; KUB No. 6478 Bacteroides fragilis): 0.25 µg/mL (≈ 1.46 µM)
- MIC (Bacteroides spp.; KUB No. 6481 Bacteroides fragilis): 1 µg/mL (≈ 5.84 µM)
- MIC (Bacteroides spp.; KUB No. 6483 Bacteroides fragilis): 0.25 µg/mL (≈ 1.46 µM)
- MIC (Bacteroides spp.; KUB No. 6484 Bacteroides fragilis): 0.5 µg/mL (≈ 2.92 µM)
- MIC (Bacteroides spp.; KUB No. 6485 Bacteroides vulgatus): 0.25 µg/mL (≈ 1.46 µM)
- MIC (Bacteroides spp.; KUB No. 6486 Bacteroides fragilis): 1 µg/mL (≈ 5.84 µM)
- MIC (Bacteroides spp.; KUB No. 6490 Bacteroides fragilis): 0.5 µg/mL (≈ 2.92 µM)
- MIC (Bacteroides spp.; KUB No. 6491 Bacteroides fragilis): 1 µg/mL (≈ 5.84 µM)
- MIC (Bacteroides spp.; KUB No. 6493 Bacteroides thetaiotaomicron): 1 µg/mL (≈ 5.84 µM)
- MIC (Bacteroides spp.; KUB No. 6496 Bacteroides fragilis): 1 µg/mL (≈ 5.84 µM)
- MIC (Bacteroides spp.; KUB No. 6497 Bacteroides vulgatus): 1 µg/mL (≈ 5.84 µM)
- MIC (Bacteroides spp.; KUB No. 6502 Bacteroides fragilis): 0.25 µg/mL (≈ 1.46 µM)
- MIC (Bacteroides spp.; KUB No. 6503 Bacteroides thetaiotaomicron): 1 µg/mL (≈ 5.84 µM)
- MIC (Bacteroides spp.; KUB No. 6504 Bacteroides caccae): 1 µg/mL (≈ 5.84 µM)
- MIC (Bacteroides spp.; KUB No. 6506 Bacteroides thetaiotaomicron): 1 µg/mL (≈ 5.84 µM)
- MIC (Bacteroides spp.; KUB No. 6509 Bacteroides fragilis): ≤ 0.12 µg/mL
- MIC (Bacteroides spp.; KUB No. 6511 Bacteroides salyersiae): 1 µg/mL (≈ 5.84 µM)
- MIC (Bacteroides spp.; KUB No. 6513 Bacteroides fragilis): 0.5 µg/mL (≈ 2.92 µM)
- MIC (Bacteroides spp.; KUB No. 6515 Bacteroides thetaiotaomicron): 1 µg/mL (≈ 5.84 µM)
- MIC (Bacteroides spp.; KUB No. 6518 Bacteroides fragilis): 0.5 µg/mL (≈ 2.92 µM)
- MIC (Bacteroides spp.; KUB No. 6522 Bacteroides fragilis): 1 µg/mL (≈ 5.84 µM)
- MIC (Bacteroides spp.; KUB No. 6523 Bacteroides fragilis): 1 µg/mL (≈ 5.84 µM)
- MIC (Bacteroides spp.; KUB No. 6525 Bacteroides fragilis): 1 µg/mL (≈ 5.84 µM)
- MIC (Bacteroides spp.; KUB No. 6527 Bacteroides thetaiotaomicron): 1 µg/mL (≈ 5.84 µM)
- MIC (Bacteroides spp.; KUB No. 6530 Bacteroides thetaiotaomicron): 1 µg/mL (≈ 5.84 µM)
- MIC (Bacteroides spp.; KUB No. 6535 Bacteroides fragilis): 0.5 µg/mL (≈ 2.92 µM)
- MIC (Bacteroides spp.; KUB No. 6544 Bacteroides vulgatus): 1 µg/mL (≈ 5.84 µM)
- MIC (Bacteroides spp.; KUB No. 6545 Bacteroides thetaiotaomicron): 0.5 µg/mL (≈ 2.92 µM)
- MIC (Bacteroides spp.; KUB No. 6556 Bacteroides vulgatus): 0.5 µg/mL (≈ 2.92 µM)
- MIC50 (Fusobacterium spp.; Fusobacterium spp.): ≤ 0.12 µg/mL
- MICrange (Fusobacterium spp.; Fusobacterium spp.): ≤0.12 to 0.5 µg/mL
- MIC90 (Fusobacterium spp.; Fusobacterium, Fusobacterium spp.): 0.25 µg/mL (≈ 1.46 µM)
- MIC (Fusobacterium spp.; Fusobacterium, KUB No. 6692 Fusobacterium sp.): ≤ 0.12 µg/mL
- MIC (Fusobacterium spp.; Fusobacterium, KUB No. 6693 Fusobacterium nucleatium): 0.25 µg/mL (≈ 1.46 µM)
- MIC (Fusobacterium spp.; Fusobacterium, KUB No. 6708 Fusobacterium necrophorun): ≤ 0.12 µg/mL
- MIC (Fusobacterium spp.; Fusobacterium, KUB No. 6715 Fusobacterium sp.): ≤ 0.12 µg/mL
- MIC (Fusobacterium spp.; Fusobacterium, KUB No. 6716 Fusobacterium nuncleatum): ≤ 0.12 µg/mL
- MIC (Fusobacterium spp.; Fusobacterium, KUB No. 6719 Fusobacterium sp.): ≤ 0.12 µg/mL
- MIC (Fusobacterium spp.; Fusobacterium, KUB No. 6725 Fusobacterium sp.): ≤ 0.12 µg/mL
- MIC (Fusobacterium spp.; KUB No. 2741 Fusobacterium varium ATCC 27725): 0.25 µg/mL (≈ 1.46 µM)
- MIC (Fusobacterium spp.; KUB No. 2742 Fusobacterium nucleatum ATCC 25586): ≤ 0.12 µg/mL
- MIC (Fusobacterium spp.; KUB No. 6694 Fusobacterium necrophorum): ≤ 0.12 µg/mL
- MIC (Fusobacterium spp.; KUB No. 6695 Fusobacterium necrophorum): 0.5 µg/mL (≈ 2.92 µM)
- MIC (Fusobacterium spp.; KUB No. 6696 Fusobacterium necrophorum): ≤ 0.12 µg/mL
- MIC (Fusobacterium spp.; KUB No. 6697 Fusobacterium nucleatum): ≤ 0.12 µg/mL
- MIC (Fusobacterium spp.; KUB No. 6698 Fusobacterium nucleatum): ≤ 0.12 µg/mL
- MIC (Fusobacterium spp.; KUB No. 6699 Fusobacterium necrophorum): ≤ 0.12 µg/mL
- MIC (Fusobacterium spp.; KUB No. 6700 Fusobacterium nucleatum): ≤ 0.12 µg/mL
- MIC (Fusobacterium spp.; KUB No. 6702 Fusobacterium necrophorum): 0.25 µg/mL (≈ 1.46 µM)
- MIC (Fusobacterium spp.; KUB No. 6710 Fusobacterium necrophorum): 0.25 µg/mL (≈ 1.46 µM)
- MIC (Fusobacterium spp.; KUB No. 6720 Fusobacterium nucleatum): ≤ 0.12 µg/mL
- MIC (Fusobacterium spp.; KUB No. 6724 Fusobacterium nucleatum): ≤ 0.12 µg/mL
